Measurements: patent publication US9566344B2, “Dasatinib and nonlinear configuration polyethylene glycol conjugate” (priority 2013, dated 2017)
Several values for one entry are separate records, joined by “and”; a condition that tells them apart may be missing. Equal values may be shown once.

Columns and labels:
[1] = system: PC-3 human prostate cancer subcutaneous xenograft; experiment: Pharmacodynamics in subcutaneous tumor model of PC-3 human prostate cancer; format: in vivo, Balb/c nude mice; settings: PC-3 xenograft; for T/C (%) relative tumor proliferation rate / Relative tumor volume (x ± SE) / Tumor volume (x ± SE) / Effect on tumor growth compared with the solvent control group (in words): 10 mg/kg; for Effect on tumor growth compared with the solvent control group (in words): p values less than 0.01; for Anti-tumor effect compared with dasatinib (in words): same dose 10 mg/kg, 25th day
Method: (§1) PC-3 cells were inoculated subcutaneously on the right back of Balb/c nude mice to establish human prostate cancer subcutaneous xenograft animal model. When the mean tumor volume reached 160 mm^3, the mice used in the experiment were divided into groups and there were 8 mice in each group, the mice were injected intravenously twice a week. The therapeutic efficiency was evaluated based on the relative tumor proliferation rate (T/C %).
(§2) PC-3 cell line was cultured in vitro in Ham's F12K medium supplemented with fetal bovine serum with a volume ratio of 10% and L-glutamine (2 mM) at 37 with the air containing CO2 with a proportion of 5%, the tumor cells were routinely passaged twice a week. The tumor cells in the exponential growth phase were collected and suspended in the mixture formed by PBS and matirgel with an equal volume, and then placed on ice for inoculation of tumor cells.
(§3) 5×10^6 of PC-3 cells were inoculated subcutaneously on the right back of the mice used in the experiment, the tumor growth weas observed regularly, and stochastic grouping of the mice according to tumor size and body weight in mice and pharmacotherapy were carried out when the mean volume of the tumor reached 160 mm^3.
In this study all the operations related to operating, nursing and treatment were undertaken according to the handbook approved by Association for Assessment and Accreditation of Laboratory Animal Care (AAALAC). […] In everyday observation, the influence of tumor growth on normal animal behaviors (such as exercise, eating, drinking, change of weight, eyes, hair) and any other abnormalities were noticed. Death and clinical symptoms of animals in each group were recorded.
Throughout the experiment, the weight and tumor size of mice were measured twice a week. The computational formula of tumor size was as follows: tumor volume (mm^3)=0.5×(long diameter of tumor×short diameter of tumor^2). According to the tumor size in experimental groups and control group, RTV and T/C ratio were calculated. RTV is the relative tumor volume. T/C ratio is the percentage ratio of relative tumor volumes in the treatment groups and the control group at a time point after finish of treatment, and reflects the antitumor pharmacodynamic actions of the different treatment groups. When the experiment was finished, the tumors were recorded by photographs in the following two ways: 1. the animals in each group were euthanized by CO2, and the tumor-bearing sides were placed upwards and taken photographs for recording by group; 2. the tumors were removed and weighed first, and T/C values (percentage ratio of tumor weights in treatment groups and the control group) were calculated, and then tumors in each group were placed in order at the same time and taken photographs for recording.

[2] = system: K562 human chronic myeloid leukemia subcutaneous xenograft; experiment: Antitumor effect in subcutaneous tumor model of K562 human chronic myeloid leukemia; format: in vivo, NOD/SCID mice
Method: as §1, with “K562” for “PC-3”, “NOD/SCID” for “Balb/c nude”, “chronic myeloid leukemia” for “prostate cancer”, “130” for “160”, “group, then” for “group,”
as §2, with “K562” for “PC-3”, “RPMI-1640” for “Ham's F12K”, “5%. The” for “5%, the”
as §3, with “K562” for “PC-3”, “was” for “weas”, “130” for “160”
In this study all the operations related to operating, nursing and treatment were undertaken according to the handbook approved by Association for Assessment and Accreditation of Laboratory Animal Care (AAALAC). […] In everyday observation, the influence of tumor growth on animal normal behaviors (such as exercise, eating, drinking, change of weight, eyes, hair) and any other abnormalities were noticed. Death and clinical symptoms of animals in each group were recorded.
Throughout the experiment, the weight and tumor size of mice were measured twice a week. The computational formula of tumor size was as follows: tumor volume (mm^3)=0.5×(long diameter of tumor x short diameter of tumor^2). According to the tumor size in experimental groups and control group, RTV and T/C ratio were calculated. RTV is the relative tumor volume. T/C ratio is the percentage ratio of relative tumor volumes in the treatment group and the control group at a time point after finish of treatment, and reflects the antitumor pharmacodynamic actions of the different treatment groups.

[3] = 22nd day after grouping, compared with the solvent control group
[4] = i.v. twice a week, 22nd day after grouping
[5] = i.v. twice a week, 25th day after grouping
[6] = injected intravenously twice a week, 22nd day after grouping
[7] = 5 mg/kg, 14th day after grouping, compared with the solvent control group
[8] = 5 mg/kg, i.v. twice a week, 14th day after grouping
[9] = 5 mg/kg, i.v. twice a week, 21st day after grouping
[10] = 5 mg/kg, i.v. twice a week, 21st day after grouping, 5 mg/kg
[11] = 5 mg/kg, injected intravenously twice a week, 14th day after grouping, 5 mg/kg
[12] = 5 mg/kg, p values less than 0.001
[13] = 25th day after grouping, compared with the group using dasatinib
[14] = 5 mg/kg, 21st day after grouping, compared with the group using dasatinib, 5 mg/kg
[15] = 5 mg/kg, 21st day after grouping, compared with the group using dasatinib

Cc1nc(Nc2ncc(C(=O)Nc3c(C)cccc3Cl)s2)cc(N2CCN(CCO)CC2)n1 [dasatinib]
T/C (%) relative tumor proliferation rate [1, 3]: 73% | Relative tumor volume (x ± SE) [1, 4]: 1148.9 ± 112.7 | Relative tumor volume (x ± SE) [1, 5]: 1235.3 ± 119.6 | Tumor volume (x ± SE) [1, 5]: 1868 mm^3 and 1868 ± 76 mm^3 | Tumor volume (x ± SE) [1, 6]: 1752 mm^3 and 1752 ± 76 mm^3 | Effect on tumor growth compared with the solvent control group (in words) [1]: statistically significant effect of anti-PC-3 tumor growth | T/C (%) relative tumor proliferation rate [2, 7]: 12.4% | Relative tumor volume (x ± SE) [2, 8]: 226.9 ± 30.0 | Relative tumor volume (x ± SE) [2, 9]: 289.1 ± 46.9 | Tumor volume (x ± SE) [2, 10]: 391 mm^3 and 391 ± 79 mm^3 | Tumor volume (x ± SE) [2, 11]: 311 mm^3 and 311 ± 55 mm^3 | Effect on tumor growth compared with the solvent control group (in words) [2, 12]: statistically significant effect of anti-K562 tumor growth

^20k4arm -PEG-OCH2CH2OCOODS [DSN-3]
T/C (%) relative tumor proliferation rate [1, 3]: 59% | T/C (%) relative tumor proliferation rate [1, 13]: 70% | Relative tumor volume (x ± SE) [1, 4]: 927.5 ± 96.3 | Relative tumor volume (x ± SE) [1, 5]: 864.7 ± 74.5 | Tumor volume (x ± SE) [1, 5]: 1307 mm^3 and 1307 ± 155 mm^3 | Tumor volume (x ± SE) [1, 6]: 1452 mm^3 and 1452 ± 139 mm^3 | Effect on tumor growth compared with the solvent control group (in words) [1]: statistically significant effect of anti-PC-3 tumor growth | Anti-tumor effect compared with dasatinib (in words) [1]: more significant | T/C (%) relative tumor proliferation rate [2, 7]: 11.8% | T/C (%) relative tumor proliferation rate [2, 14]: 42% | Relative tumor volume (x ± SE) [2, 8]: 215.4 ± 41.1 | Relative tumor volume (x ± SE) [2, 9]: 208 ± 37.6 | Tumor volume (x ± SE) [2, 10]: 281 mm^3 and 281 ± 56 mm^3 | Tumor volume (x ± SE) [2, 11]: 295 mm^3 and 295 ± 68 mm^3 | Effect on tumor growth compared with the solvent control group (in words) [2, 12]: statistically significant effect of anti-K562 tumor growth | Anti-tumor effect compared with dasatinib (in words) ([2]; same dose 5 mg/kg, 21st day): more significant

^20k4arm -PEG-OCH2CH2ODS [DSN-1]
T/C (%) relative tumor proliferation rate [1, 3]: 67% | T/C (%) relative tumor proliferation rate [1, 13]: 79% | Relative tumor volume (x ± SE) [1, 4]: 1053.2 ± 107.4 | Relative tumor volume (x ± SE) [1, 5]: 975.6 ± 103.5 | Tumor volume (x ± SE) [1, 5]: 1476 mm^3 and 1476 ± 118 mm^3 | Tumor volume (x ± SE) [1, 6]: 1649 mm^3 and 1649 ± 142 mm^3 | Effect on tumor growth compared with the solvent control group (in words) [1]: statistically significant effect of anti-PC-3 tumor growth | Anti-tumor effect compared with dasatinib (in words) [1]: more significant | T/C (%) relative tumor proliferation rate [2, 7]: 14% | T/C (%) relative tumor proliferation rate [2, 15]: 96% | Relative tumor volume (x ± SE) [2, 8]: 254.6 ± 42.2 | Relative tumor volume (x ± SE) [2, 9]: 277.5 ± 32.2 | Tumor volume (x ± SE) [2, 10]: 375 mm^3 and 375 ± 89 mm^3 | Tumor volume (x ± SE) [2, 11]: 349 mm^3 and 349 ± 76 mm^3 | Effect on tumor growth compared with the solvent control group (in words) [2, 12]: statistically significant effect of anti-K562 tumor growth | Anti-tumor effect compared with dasatinib (in words) ([2]; same dose 5 mg/kg, 21st day): no statistically significant differences

^20k4arm -PEG-OCH2COODS [DSN-2]
T/C (%) relative tumor proliferation rate [1, 3]: 71% | T/C (%) relative tumor proliferation rate [1, 13]: 88% | Relative tumor volume (x ± SE) [1, 4]: 1116.1 ± 98.2 | Relative tumor volume (x ± SE) [1, 5]: 1087.1 ± 88.2 | Tumor volume (x ± SE) [1, 5]: 1644 mm^3 and 1644 ± 146 mm^3 | Tumor volume (x ± SE) [1, 6]: 1748 mm^3 and 1748 ± 146 mm^3 | Effect on tumor growth compared with the solvent control group (in words) [1]: statistically significant effect of anti-PC-3 tumor growth | Anti-tumor effect compared with dasatinib (in words) [1]: no statistically significant difference | T/C (%) relative tumor proliferation rate [2, 7]: 16% | T/C (%) relative tumor proliferation rate [2, 15]: 121% | Relative tumor volume (x ± SE) [2, 8]: 282.1 ± 46.3 | Relative tumor volume (x ± SE) [2, 9]: 350.3 ± 71.9 | Tumor volume (x ± SE) [2, 10]: 462 mm^3 and 462 ± 114 mm^3 | Tumor volume (x ± SE) [2, 11]: 372 mm^3 and 372 ± 80 mm^3 | Effect on tumor growth compared with the solvent control group (in words) [2, 12]: statistically significant effect of anti-K562 tumor growth | Anti-tumor effect compared with dasatinib (in words) ([2]; same dose 5 mg/kg, 21st day): no statistically significant differences

^20k4arm-PEG-OCH2CH2NHCOODS [DSN-4]
T/C (%) relative tumor proliferation rate [1, 3]: 48% | T/C (%) relative tumor proliferation rate [1, 13]: 63% | Relative tumor volume (x ± SE) [1, 4]: 754.6 ± 84.5 | Relative tumor volume (x ± SE) [1, 5]: 778.1 ± 82.4 | Tumor volume (x ± SE) [1, 5]: 1177 mm^3 and 1177 ± 120 mm^3 | Tumor volume (x ± SE) [1, 6]: 1182 mm^3 and 1182 ± 68 mm^3 | Effect on tumor growth compared with the solvent control group (in words) [1]: statistically significant effect of anti-PC-3 tumor growth | Anti-tumor effect compared with dasatinib (in words) [1]: more significant | T/C (%) relative tumor proliferation rate [2, 7]: 8.5% | T/C (%) relative tumor proliferation rate [2, 14]: 36% | Relative tumor volume (x ± SE) [2, 8]: 155.5 ± 28.5 | Relative tumor volume (x ± SE) [2, 9]: 161.8 ± 18.9 | Tumor volume (x ± SE) [2, 10]: 219 mm^3 and 219 ± 45 mm^3 | Tumor volume (x ± SE) [2, 11]: 210 mm^3 and 210 ± 47 mm^3 | Effect on tumor growth compared with the solvent control group (in words) [2, 12]: statistically significant effect of anti-K562 tumor growth | Anti-tumor effect compared with dasatinib (in words) ([2]; same dose 5 mg/kg, 21st day): more significant
